The text below walks through data of patent US7235375B2, “Organic anion transport proteins” (Bristol-Myers Squibb Company, priority 1999, dated 2007).

Structures are written as SMILES. Like-named read-outs stand apart in the source and are kept apart here.

The target of the series is T1, OATP2 (Homo sapiens, UniProt Q9Y6L6, N130D).
T1 sequence (Q9Y6L6 1-691 N130D): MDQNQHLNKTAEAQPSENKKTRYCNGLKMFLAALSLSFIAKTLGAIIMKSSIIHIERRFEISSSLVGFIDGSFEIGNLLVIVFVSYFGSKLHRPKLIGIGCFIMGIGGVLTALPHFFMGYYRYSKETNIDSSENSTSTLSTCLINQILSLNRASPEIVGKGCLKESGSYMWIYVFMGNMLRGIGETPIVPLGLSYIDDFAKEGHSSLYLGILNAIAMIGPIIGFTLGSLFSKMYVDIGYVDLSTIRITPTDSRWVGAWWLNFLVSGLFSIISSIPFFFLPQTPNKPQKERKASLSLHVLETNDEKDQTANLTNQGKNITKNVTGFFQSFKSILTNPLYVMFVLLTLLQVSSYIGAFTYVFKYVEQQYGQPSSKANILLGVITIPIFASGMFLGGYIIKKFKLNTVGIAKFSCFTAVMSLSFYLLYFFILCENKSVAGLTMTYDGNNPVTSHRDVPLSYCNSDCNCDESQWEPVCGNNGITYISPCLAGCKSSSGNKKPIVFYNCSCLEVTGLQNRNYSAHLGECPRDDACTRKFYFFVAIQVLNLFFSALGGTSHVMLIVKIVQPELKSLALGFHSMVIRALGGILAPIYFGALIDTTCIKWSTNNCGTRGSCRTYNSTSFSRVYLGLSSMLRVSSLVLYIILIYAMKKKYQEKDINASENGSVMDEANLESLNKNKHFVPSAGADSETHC
As to conditions: 293EBNA (HEK293 derivative) cells transfected with pCEP-OATP2 or empty vector (MOCK), uptake for 5 minutes, absence and presence of excess unlabeled substrate, FIG. 2. How it is done:
An assay for the measurement of OATP activity is performed as follows: HEK293 cells are plated in Dulbeccos Modified Eagles Medium (DMEM) plus 10% fetal bovine serum plus penicillin and streptomycin, in poly-d-lysine coated dishes and co-transfected with OATP transporter expression plasmids using Lipofectamine Plus (Life Technologies, Inc.). The cells and media are assayed for substrate transport 24 hours later. Alternatively, cell lines engineered to stably express OATPs could be plated and assayed directly without transfection. To measure transport, media is removed and monolayers are assayed in triplicate by washing once in serum-free DMEM and adding the same medium containing [^3H]-substrate alone or in the presence of various concentrations of unlabeled test compounds. […] The transport activity is expressed as moles of substrate transported into cells/mg of cell protein/minute. […]
293EBNA cells (Invitrogen, Inc.), an HEK293 cell derivative, were transiently transfected with the OATP2 expression vector pCEP-OATP2, or the pCEP4 vector alone (MOCK) and the transport of [^3H]-labeled substrates was determined 24 hours later. […] The uptake of radiolabeled substrate for 5 minutes into cells transfected with pCEP-OATP2 or empty vector (MOCK) was determined in the absence (solid bars) and presence (open bars) of excess unlabeled substrate.

As for `NC(Cc1cc(I)c(Oc2cc(I)c(O)c(I)c2)c(I)c1)C(=O)O` (centres unmarked) [thyroid hormone (T4)], the “transport (specific uptake of radiolabeled substrate) by OATP2” value is reported as “specific uptake”. Under “listed as thyroid hormone (T)”, the “transport (specific uptake of radiolabeled substrate) by OATP2” value was “transports”.
